Test results: patent US12077483B2, “Modified amine lipids” (Intellia Therapeutics, Inc., priority 2018, dated 2024)

Legend:
[1] = Tolerability in rats: liver enzyme panel 24 hours post dose; assay type: in vivo, rat; conditions: Sprague Dawley female rats, 6 mg/kg, serum
Method: For efficacy, Sprague Dawley female rats were dosed i.v. at 0.1 mpk or 0.03 mpk. 6-7 days post dose, rats were euthanized by CO2 asphyxiation. Blood was collected into serum separator tubes. Liver biopsy processed for gDNA and assessed for editing by NGS methods described in Example 115. Results are shown in Table 11 and FIGS. 12A and 12B. For tolerability, Sprague Dawley female rats were dosed at 6 mpk and 24 hours post dose the animals were euthanized by CO2 asphyxiation. Blood was collected into serum separator tubes and sent to an external CRO for quantitation of liver enzymes via a liver enzyme panel.

TTR in HUH7 cells = assay: In vitro editing in HUH7 cells, LNP with Cas9 mRNA and sgRNA G000502, NGS; assay type: cell-based, human; conditions: Table 14; 2000 ng RNA per well, cells harvested 6 hours post-transfection, biological duplicate, G000502 target locus
Method: A series of compounds based on Compound 46 that vary by the inclusion of a C4-12 alkyl at the R^3 position of Formula (IA) (as illustrated in FIG. 13A) were tested for in vitro editing. The human hepatocellular carcinoma cell line […] (Japanese Collection of Research Bioresources Cell Bank, Cat. JCRB0403) was cultured in DMEM media supplemented with 10% fetal bovine serum and 1% Penicillin-Streptomycin. Cells were plated at a density of 20,000 cells/well in a 96-well plate 24 hours prior to transfection (˜80% confluent at time of transfection). The LNPs were formulated at a 1:2 w/w ratio of sgRNA and Cas9 mRNA using the cross flow procedure with lipid molar compositions as described in Table 13 at an N/P ratio of 6.0. LNP compositions were analyzed for average particle size, polydispersity (pdi), total RNA content and encapsulation efficiency of RNA as described in Example 115. Analysis of average particle size, polydispersity (PDI), total RNA content and encapsulation efficiency of RNA are shown in Table 13. LNPs were diluted into media, incubated for 5 minutes at 37 C and pipetted onto cells at a dose of 2000 ng RNA per well. Each condition was assayed in biological duplicate. Cells were harvested post-transfection at 6 hours. Genomic DNA was extracted using 50 μL/well BuccalAmp DNA Extraction solution (Epicentre, Cat. QE09050) according to manufacturer's protocol. All DNA samples were subjected to PCR and subsequent NGS analysis for editing at the G000502 target locus, as described above. As shown in Table 14 and FIG. 13B, all compounds tested were efficacious for in vitro editing.

| SMILES | ALP (U/L) [1] [U/L] | ALT (U/L) [1] [U/L] | AST (U/L) [1] [U/L] | Creatine kinase (U/L) [1] [U/L] | GGT (U/L) [1] [U/L] | Total Bilirubin [1] [mg/dL] | Editing (TTR in HUH7 cells) [%] |
| --- | --- | --- | --- | --- | --- | --- | --- |
| CCCCC/C=C\C/C=C\CCCCCCCC(=O)OCC(COC(=O)CCCCCCC/C=C\C/C=C\CCCCC)OC(=O)CCC(CCCCCC)OC(=O)OCCCN1CCCC1 (centres unmarked) [Compound 45, 2-((4-(((3-(pyrrolidin-1-yl)propoxy)carbonyl)oxy)decanoyl)oxy)propane-1,3-diyl (9Z,9′Z,12Z,12′Z)-bis(octadeca-9,12-dienoate)] | 439.8 | 163.2 | 681 | 1103 | 2.4 | 0.3 |  |
| CCCCC/C=C\C/C=C\CCCCCCCC(=O)OCC(COC(=O)CCCCCCC/C=C\C/C=C\CCCCC)OC(=O)CCC(CCCCC)OC(=O)NCCN1CCCC1 (centres unmarked) [Compound 72, 2-((4-(((2-(pyrrolidin-1l-yl)ethyl)carbamoyl)oxy)nonanoyl)oxy)propane-1,3-diyl (9Z,9′Z,12Z,12′Z)-bis(octadeca-9,12-dienoate)] |  |  |  |  |  |  | 65.8 |
| CCCCC/C=C\C/C=C\CCCCCCCC(=O)OCC(COC(=O)CCCCCCC/C=C\C/C=C\CCCCC)OC(=O)CCC(CCCCCCCC)OC(=O)NCCN1CCCC1 (centres unmarked) [Compound 51, 2-((4-(((2-(pyrrolidin-1-yl)ethyl)carbamoyl)oxy)dodecanoyl)oxy)propane-1,3-diyl (9Z,9′Z,12Z,12′Z)-bis(octadeca-9,12-dienoate)] |  |  |  |  |  |  | 69.0 |
| CCCCC/C=C\C/C=C\CCCCCCCC(=O)OCC(COC(=O)CCC(OCCCCCCCC)OCCCCCCCC)COC(=O)OCCCN(CC)CC (centres unmarked) [Compound 49, 3-((4,4-bis(octyloxy)butanoyl)oxy)-2-((((3-(diethylamino)propoxy)carbonyl)oxy)methyl)propyl (9Z,12Z)-octadeca-9,12-dienoate, reference compound] | 784.3 | 408.5 | 534.8 | 157.5 | 2 | 0.6 | 22.6 |
| CCCCC/C=C\C/C=C\CCCCCCCC(=O)OCC(COC(=O)CCCCCCC/C=C\C/C=C\CCCCC)OC(=O)CCC(CCCCCCCC)OC(=O)NCCN(C)CC (centres unmarked) [Compound 34, 2-((4-(((2-(ethyl(methyl)amino)ethyl)carbamoyl)oxy)dodecanoyl)oxy)propane-1,3-diyl (9Z,9′Z,12Z,12′Z)-bis(octadeca-9,12-dienoate)] | 542 | 179.6 | 349.6 | 184.8 | 3.4 | 0.2 | 49.0 |
| CCCCC/C=C\C/C=C\CCCCCCCC(=O)OCC(COC(=O)CCCCCCC/C=C\C/C=C\CCCCC)OC(=O)CCC(CCCCCC)OC(=O)NCCN1CCCC1 (racemic) [Compound 50, 2-((4-(((2-(pyrrolidin-1-yl)ethyl)carbamoyl)oxy)decanoyl)oxy)propane-1,3-diyl (9Z,9′Z,12Z,12′Z)-bis(octadeca-9,12-dienoate)] | 508.6 | 250.8 | 820.8 | 272 | 11 | 0.4 | 64.3 |
